The values below come from PubChem BioAssay AID504539 (Broad Institute, 2011).

Where “and” joins values, the source holds several entries; their conditions need not be identical. Equal values may be shown once.

This experiment deals with Cell-based prion protein 5' UTR reporter, plate reader. Kind of experiment: prion protein 5' UTR mRNA inhibitors – cell-based, plate reader, cherry-picked samples, dose response (AID 504539).
For orientation: AC50 means the concentration giving half of the maximal activity seen. For `CN(C)c1ccc(Nc2nc(N)c3ccccc3n2)cc1`, the AC50 was 562 nM. Consider `CC(=O)O[C@H]1C[C@@H]2OC3C=C(C)CCC3(C)[C@@]1(C)[C@@]21CO1` (stereo partly drawn), for which the AC50 was 2070 nM.

With `Cc1ccc(C(C)C)c(OCc2ccc(C(=O)N/N=C/c3cccc(O)c3O)cc2)c1`, the AC50 was 1510 nM.

`COc1cc(/C=N/O)ccc1OCc1ccc(C(=O)O)cc1`: the AC50 is 226 nM. Consider `Cc1ccc(C(=O)O/N=C(\N)c2ccccn2)cc1C`, for which the half-maximal activity concentration (AC50) was 708 nM. Take `CN(C)c1ccc(NC(=S)c2ccccn2)cc1`: the AC50 was 222 nM. Regarding `Cc1nn(-c2nc3ccccc3[nH]2)c(=O)c2ccccc12`, the AC50 is 145 nM. Turning to `C=C1C(=O)O[C@@H]2C[C@@H](C)[C@@H]3C=CC(=O)[C@@]3(C)[C@@H](OC(=O)CC(=O)O[C@H]3[C@@H]4C(=C)C(=O)O[C@@H]4C[C@@H](C)[C@@H]4C=CC(=O)[C@]43C)[C@H]12`, the AC50 is 633 nM.

Consider `CCCc1ccc(C(=O)O/N=C(\N)c2ccccn2)cc1`, for which the AC50 is 1080 nM. For `COC(=O)C1CCC(=O)N1C(c1ccc(OC)cc1)c1cc(OC)c(OC)c(OC)c1` (stereo not drawn), the AC50 is 676 nM.

Regarding `COc1ccc(C(=O)Nc2ccc(C)cn2)c(OC)c1`, the AC50 was 280 nM.

Turning to `C[C@]12CC[C@H](O)C[C@H]1CC[C@@H]1[C@@H]2CC[C@]2(C)[C@@H](C3=CC(=O)OC3)CC[C@]12O`, the AC50 was 235 nM. With `CC1CCC/C=C/C2CC(O)CC2C(O)/C=C/C(=O)O1` (stereo not drawn), the AC50 is 51 nM. Regarding `O=C1N(c2ccccc2)C[C@@H]2C[C@@H](c3cc4ccccc4o3)N3CCC[C@@]123`, the AC50 is 511 nM.

Regarding `Cc1ccc2nc(-c3ccccc3)cn2c1`, the AC50 was 210 nM.

On to `CCOC(=O)C(C)Oc1cccc2c(=O)n(CC(=O)NCc3ccccc3)ccc12` (stereo not drawn), for which the AC50 was 919 nM. With `CCOc1ccc(NC(=O)Nc2cccc(C(=O)O)c2)cc1`, the half-maximal activity concentration (AC50) was 136 nM. For `CCc1ccn2cc(-c3cc(-c4ccccc4)no3)nc2c1`, the AC50 was 558 nM. Regarding `CN(C)CCN1C(=O)c2cccc3cc([N+](=O)[O-])cc(c23)C1=O`, the AC50 was 433 nM. Regarding `COc1cc2c(c(OC)c1OC)-c1ccc(OC)c(=O)cc1[C@@H](N(C)CC#CCO)CC2`, the AC50 was 235 nM.

On to `CC1=CC2OC3CC4OC(=O)C=CC=CC(C(C)O)OCC(O)C5(C)OC5C(=O)OCC2(CC1O)C4(C)C31CO1` (stereo not drawn), for which the AC50 was 95 nM. As for `CN(C)c1ccc(CCc2ccc(N)cc2)cc1`, the AC50 is 831 nM. As for `CCOCCOC(=O)c1[nH]c2c(c1C)C(=O)CC(c1cccs1)C2` (stereo not drawn), the AC50 was 1700 nM.

`Cc1ccc(C(=O)O/N=C(\N)c2ccccn2)cc1`: the AC50 is 213 nM. As to `NC(=S)c1cn(C2OC(CO)C(O)C2O)c2ncnc(N)c12` (stereo not drawn), the AC50 was 1810 nM. With `CC1CCCN(c2ncnc3c2cnn3-c2ccc(Cl)cc2)C1` (stereo not drawn), the AC50 was < 38 nM. As for `Cc1ccc(-c2cn3cc(C)ccc3n2)cc1`, the AC50 is 113 nM. `COc1cc2c(c(OC)c1OC)-c1ccc(SC)c(=O)cc1C(NC(=O)c1ccccc1)CC2` (stereo not drawn): the AC50 was < 38 nM. Consider `CCOc1ncccc1C(=O)N1CCN(c2cccc(C)c2C)CC1`, for which the AC50 is 517 nM. Regarding `O=C(NCCc1ccccc1)c1ccc2c(c1)OCCO2`, the AC50 was 196 nM. For the molecule `CC(=O)OC1C2(CC3N4C(=O)C5(CO)SSC4(CC31O)C(=O)N5C)OC(C)C(C)(C)C2=O` (stereo not drawn), the AC50 is 295 nM. `CN1CCc2c(sc(NC(=O)c3ccc([N+](=O)[O-])o3)c2C(N)=O)C1`: the AC50 is 972 nM. Regarding `CCCCCCN1C=CC(=C2C(=O)c3ccccc3C2=O)C=C1`, the AC50 was 369 nM. The same measure for `Cc1c(C(=O)OCCOC(C)C)[nH]c2c1C(=O)CC(c1ccco1)C2` (stereo not drawn): 450 nM; for `C(=N\Nc1ccc2ccccc2n1)/c1ccc2c(c1)OCCO2`: 1220 nM. In the case of `COc1cc(NC(=O)c2cccs2)c(C(=O)OCC(=O)c2cc(C)n(-c3ccccc3)c2C)cc1OC`, the concentration at half-maximal activity (AC50) was 989 nM.

In the case of `CC(=O)O[C@H]1C(=O)[C@@]2(C)C([C@H](OC(=O)c3ccccc3)[C@]3(O)C[C@H](OC(=O)[C@H](O)[C@@H](NC(=O)c4ccccc4)c4ccccc4)C(C)=C1C3(C)C)[C@]1(OC(C)=O)CO[C@@H]1C[C@H]2O` (stereo partly drawn), the AC50 was 160 nM. For `COc1cc(-c2noc(C)c2/C=C/c2ccc(OC(C)=O)cc2)cc(OC)c1OC` the value was 555 nM; for `CC1OC(OC2C=C3CCC4C(CCC5(C)C(c6ccc(=O)oc6)CCC45O)C3(C)CC2)C(O)C(OC2OC(CO)C(O)C(O)C2O)C1O` (stereo not drawn), < 38 nM.

Regarding `COc1cc(SC)ccc1C(=O)Nc1ccc(Cl)cn1`, the half-maximal activity concentration (AC50) was 567 nM. With `CCOc1ccc(C(=O)O/N=C(\N)c2ccccn2)cc1`, the AC50 is 134 nM.

As to `COc1ccccc1C(=O)Nc1nc2ccccc2[nH]1`, the AC50 was 178 nM. For the molecule `O=C(Nc1cccc(C(=O)O)c1)Nc1ccc2c(c1)OCO2`, the AC50 is 397 nM. For the molecule `C[C@@H]1O[C@@H](O[C@@H]2C=C3CC[C@@H]4C(CC[C@]5(C)[C@@H](c6ccc(=O)oc6)CC[C@]45O)[C@@]3(C)CC2)[C@H](O)[C@H](O)[C@H]1O` (stereo partly drawn), the AC50 was < 38 nM.

As to `O=C(O)c1cccc(N/N=C/c2cccs2)c1`, the AC50 is 349 nM.

Turning to `C[C@H]1CCC/C=C/[C@@H]2C[C@H](O)C[C@H]2[C@H](O)/C=C/C(=O)O1`, the AC50 was 72 nM and 51 nM. For `COc1ccc(-c2nc(-c3ccccn3)no2)cc1`, the concentration at half-maximal activity (AC50) was 209 nM. On to `CC(C)(C)c1ccc(C(=O)Nc2ccc(CC(=O)O)cc2)o1`, for which the AC50 is 312 nM. `Nc1ccc(Oc2cccc(Oc3ccc(N)cc3)c2)cc1`: the AC50 was 587 nM.

Consider `COc1cccc(NC(=O)Nc2cccc(C(=O)O)c2)c1`, for which the AC50 was 645 nM. Turning to `Cc1ccc(C(=O)O/N=C(\N)c2ccccn2)c(Cl)c1`, the AC50 is 197 nM. Turning to `N/C(=N\OC(=O)c1ccc(Cl)cc1Cl)c1ccccn1`, the AC50 was 539 nM.

Turning to `Cc1ccsc1/C=N/Nc1cccc(C(=O)O)c1`, the AC50 was 355 nM.

Regarding `CC(=O)OC(C)(C)/C=C/C(=O)[C@](C)(O)[C@H]1[C@H](O)C[C@@]2(C)[C@@H]3CC=C4[C@H](C[C@H](O)C(=O)C4(C)C)[C@]3(C)C(=O)C[C@]12C`, the AC50 was < 38 nM. For the molecule `COc1ccc(-c2nsc3c(N4CCCCC4)ncnc23)cc1`, the AC50 is 1680 nM. Consider `COc1ccc(-c2cc(-c3cccs3)c(C#N)c(SCC(=O)NCc3ccco3)n2)cc1`, for which the AC50 was 1530 nM. With `COc1ccc(/C=N/NC(=O)c2[nH]c3ccc(Br)cc3c2-c2ccccc2)cc1`, the AC50 is 209 nM.

For `CN1CCN(c2ccc(-c3ccc4ccccc4n3)cc2)CC1`, the AC50 was 113 nM. With `COc1cc2c(c(OC)c1OC)-c1ccc(O)cc1C(NC(C)=O)CC2` (stereo not drawn), the AC50 is 128 nM.

On to `CC(=O)OC(C)(C)/C=C/C(=O)[C@](C)(O)C1[C@H](O)C[C@@]2(C)C3CC=C4C(C[C@H](O)C(=O)C4(C)C)[C@]3(C)C(=O)C[C@]12C` (stereo partly drawn), for which the AC50 is < 38 nM. The same measure for `COc1ccc(/C=N/NC(=O)c2cc3c(OC)ccc(OC)c3[nH]2)cc1O`: 1340 nM; for `CCN(CC)c1ccc2c(cc1=O)[C@@H](NC)CCc1cc(OC)c(OC)c(OC)c1-2`: 634 nM. Regarding `C=CCn1c(C)cc(C2=NNC(=NCC)SC2)c1C`, the AC50 is < 38 nM. Take `Cc1ccc(-c2cc(C(=O)N/N=C/c3c(C)nn(-c4ccccc4)c3C)[nH]n2)cc1`: the AC50 is 3000 nM. For `CCCOC(=O)c1[nH]c2c(c1C)C(=O)CC(c1cccs1)C2` (stereo not drawn) the value was 132 nM; for `Cc1ccc2nc3sc(C(=O)N4CCOCC4)c(N)c3cc2c1`, 275 nM; for `COc1cc(SC)ccc1C(=O)Nc1ncc(C)s1`, 361 nM. For `COc1ccc(C(=O)NN(C)c2nc(C(F)(F)F)nc3ccccc23)cc1`, the AC50 is 163 nM.

As to `CCCCN1C=CC(=C2C(=O)c3ccccc3C2=O)C=C1`, the AC50 was 248 nM. Regarding `Cc1cc(C(=O)COC(=O)C2=COCCO2)c(C)n1-c1ccccc1`, the AC50 was 1170 nM. As for `COC(=O)C1=C(C(=O)OC)SC2(S1)C(C(=O)OC)=C(C(=O)OC)Sc1c2ssc1=O`, the AC50 is 2620 nM.

With `COc1cc(C2C(C#N)=C(N)Oc3cc(N)ccc32)cc(OC)c1OC` (stereo not drawn), the AC50 is 614 nM. On to `COc1cc(-c2noc(C)c2-c2ccc(N(C)C)nc2)cc(OC)c1OC`, for which the AC50 is 358 nM.

Turning to `COC(=O)c1c(N)sc(C(=O)NCCc2ccccc2)c1C`, the half-maximal activity concentration (AC50) was 413 nM. The same measure for `CCOC(=O)c1ccc(NC(=O)Nc2ccon2)cc1`: 596 nM; for `Cc1cc(C)c(S(=O)(=O)Nc2ccc3c4c(cccc24)CC3)c(C)c1`: 1900 nM.

For `Nc1ncnc2c(C3OC(CO)C(O)C3O)c[nH]c12` (stereo not drawn), the AC50 is 76 nM. `COc1ccc(CCc2cc(OC)c(OC)c(OC)c2)cc1`: the AC50 is 40 nM. Turning to `COc1ccc(/C=C2\SC(=O)N(CCCC(=O)Nc3cc(Cl)ccc3C(=O)O)C2=O)cc1`, the AC50 is 242 nM. As for `O=C(N/N=C/c1c[nH]c2ccccc12)c1[nH]c2ccc(Br)cc2c1-c1ccccc1`, the AC50 was 774 nM. For the molecule `Fc1ccc(-n2nnc(-c3cnc4ccccc4c3)n2)cc1`, the AC50 was 1040 nM.

Turning to `COc1c(C=O)c2c(c(OC)c1OC)-c1ccc(OC)c(=O)cc1C(NC(C)=O)CC2` (stereo not drawn), the AC50 was 300 nM. Turning to `Cc1c(C)c2ccc(OCC(=O)Nc3ccccn3)c(C)c2oc1=O`, the AC50 is 64 nM. For `CSC1SCC2C(=O)N(C)C(C(C)C)C(=O)OCC(NC(=O)c3cnc4ccccc4n3)C(=O)NC(C)C(=O)N(C)C1C(=O)N(C)C(C(C)C)C(=O)OCC(NC(=O)c1cnc3ccccc3n1)C(=O)NC(C)C(=O)N2C` (stereo not drawn) the value was < 38 nM. As for `COc1ccc(S(=O)(=O)N2c3cc(Cl)ccc3Oc3nc4ccccc4nc32)cc1`, the AC50 is 1350 nM.

On to `O=C(CN1C(=O)c2ccccc2S1(=O)=O)c1ccc2c(c1)OCCO2`, for which the AC50 is 114 nM.

Regarding `Cc1ccc2oc(/N=C(\N)NC(=O)C(C)(C)C)nc2c1`, the AC50 was < 38 nM. For `CNc1c2cccc(C)c2nc2c(C(=O)NCCN(C)C)cccc12` the value was 307 nM. The same measure for `CN(C)c1ccc(/C=C2\SC(=O)N(CCc3nnc(N)s3)C2=O)cc1`: 481 nM. For `Cc1nn(-c2ccccc2)c2c1CC(=O)Nc1ccccc1-2`, the AC50 is 1960 nM. For `COc1ccc(C(=O)/C=C/Nc2ccccn2)cc1`, the AC50 is 369 nM. As for `C[C@]12CCC3C(CCC4=CC(O)CC[C@@]43/C=N/O)C1(O)CCC2C1=CC(=O)OC1` (stereo partly drawn), the AC50 was 308 nM. As to `Cc1ccc(CCC(=O)Nc2ncc(Cc3cccc(Cl)c3Cl)s2)o1`, the AC50 was 358 nM.
